The text below walks through data of patent US20230102554A1 (GB002, INC., priority 2019, published 2023).

pIC50: −log10 of the molar value. Structures can show the parent of a compound that is named as a salt.

The target of assay [1] is T1, Human PDGFRα, cytoplasmic domain (GST-PDGFRα) (Homo sapiens, UniProt P16234).
T1 construct: made in house
Nature of the assay: Human PDGFRα biochemical inhibition assay (off-chip Mobility Shift Assay).

In assay [2] the target is T2, Human PDGFRβ, cytoplasmic domain (GST-PDGFRβ) (Homo sapiens, UniProt P09619).
T2 construct: made in house
Nature of the assay: Human PDGFRβ biochemical inhibition assay (off-chip Mobility Shift Assay). Summed up:
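GST-tagged cytoplasmic domain (aa 557-1106) from baculovirus was incubated 1 h at room temperature with compound, CSKtide, ATP at Km and Mg²⁺ in HEPES buffer, pH 7.5. Phosphorylated and unphosphorylated peptide were separated by off-chip mobility shift, and the product ratio P/(P+S) gave percent inhibition.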

What is called pIC50 is −log10 of the IC50, conventionally taken in molar units.

T2 sequence (P09619 with tags, fused parts or gaps): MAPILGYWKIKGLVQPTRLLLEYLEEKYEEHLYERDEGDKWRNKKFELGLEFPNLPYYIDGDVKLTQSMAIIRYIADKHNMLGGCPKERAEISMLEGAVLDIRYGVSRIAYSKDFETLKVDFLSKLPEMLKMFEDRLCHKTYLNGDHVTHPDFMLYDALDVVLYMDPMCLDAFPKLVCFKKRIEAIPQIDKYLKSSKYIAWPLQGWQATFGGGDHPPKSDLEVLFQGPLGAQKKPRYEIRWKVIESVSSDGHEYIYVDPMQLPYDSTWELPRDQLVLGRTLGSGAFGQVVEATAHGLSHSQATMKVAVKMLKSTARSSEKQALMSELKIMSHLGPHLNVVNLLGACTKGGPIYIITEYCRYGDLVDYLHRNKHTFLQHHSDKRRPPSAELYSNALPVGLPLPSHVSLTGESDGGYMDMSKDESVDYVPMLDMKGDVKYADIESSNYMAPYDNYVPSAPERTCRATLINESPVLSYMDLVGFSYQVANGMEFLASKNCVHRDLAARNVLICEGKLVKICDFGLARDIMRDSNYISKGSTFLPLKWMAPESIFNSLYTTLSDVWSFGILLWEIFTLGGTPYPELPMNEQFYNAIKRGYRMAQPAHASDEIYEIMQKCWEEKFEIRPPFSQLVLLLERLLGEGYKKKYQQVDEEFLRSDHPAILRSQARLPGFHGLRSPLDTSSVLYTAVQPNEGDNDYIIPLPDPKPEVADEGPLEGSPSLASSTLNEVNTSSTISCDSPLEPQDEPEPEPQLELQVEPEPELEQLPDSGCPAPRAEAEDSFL
T1 sequence (P16234 550-1089 T674I): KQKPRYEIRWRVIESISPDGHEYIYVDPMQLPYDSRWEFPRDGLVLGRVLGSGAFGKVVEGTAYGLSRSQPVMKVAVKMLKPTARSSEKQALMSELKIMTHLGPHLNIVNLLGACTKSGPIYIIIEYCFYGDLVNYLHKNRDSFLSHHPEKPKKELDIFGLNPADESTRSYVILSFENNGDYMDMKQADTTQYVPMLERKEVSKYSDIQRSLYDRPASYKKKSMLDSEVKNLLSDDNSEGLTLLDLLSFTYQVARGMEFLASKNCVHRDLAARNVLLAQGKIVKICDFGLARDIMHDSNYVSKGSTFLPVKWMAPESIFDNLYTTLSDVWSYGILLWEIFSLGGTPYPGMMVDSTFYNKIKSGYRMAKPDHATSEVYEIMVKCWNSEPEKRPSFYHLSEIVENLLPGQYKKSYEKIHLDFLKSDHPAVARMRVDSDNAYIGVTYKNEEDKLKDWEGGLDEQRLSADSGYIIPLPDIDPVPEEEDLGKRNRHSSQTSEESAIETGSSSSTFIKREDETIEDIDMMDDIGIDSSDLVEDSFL

In the case of `C[C@H](Nc1cnc2cnn(C)c2n1)c1cccc(NC(=O)c2cc(C(C)(C)C)on2)c1` [Compound 143, (S)-5-(tert-butyl)-N-(3-(1-((1-methyl-1H-pyrazolo[3,4-b]pyrazin-6-yl)amino)ethyl)phenyl)isoxazole-3-carboxamide], the negative-log IC50 (pIC50) in assay [1] and in assay [2] was over 6.52 each time.
Take `CCn1cc2ncc(N[C@@H](C)c3cccc(NC(=O)c4cnc(CN5CC6(COC6)C5)c(Cl)c4)c3)nc2n1` [Compound 503, (S)-6-((2-oxa-6-azaspiro[3.3]heptan-6-yl)methyl)-5-chloro-N-(3-(1-((2-ethyl-2H-pyrazolo[3,4-b]pyrazin-6-yl)amino)ethyl)phenyl)nicotinamide]: the negative-log IC50 (pIC50) in assay [1] and in assay [2] was 6.00 to 6.52 throughout.
Turning to `COc1ccc2cc(N[C@@H](C)c3cccc(NC(=O)c4cncc(C)c4)c3)cnc2c1` [Compound 28, (S)-N-(3-(1-((7-methoxyquinolin-3-yl)amino)ethyl)phenyl)-5-methylnicotinamide], the pIC50 in assay [1] and in assay [2] was over 6.52 throughout.
With `CCn1cc2ncc(N[C@@H](C)c3cccc(NC(=O)c4cncc(F)c4)c3)nc2n1` [Compound 355, (S)-N-(3-(1-((2-ethyl-2H-pyrazolo[3,4-b]pyrazin-6-yl)amino)ethyl)phenyl)-5-fluoronicotinamide], the negative logarithm of the IC50 (pIC50) in assay [1] is 6.00 to 6.52; in assay [2] it was at most 6.00.
The corresponding values for `CCn1cc2ncc(N[C@@H](C)c3cccc(NC(=O)c4ccc(N5CCCC5)c(Cl)c4)c3)nc2n1` [Compound 389, (S)-3-chloro-N-(3-(1-((2-ethyl-2H-pyrazolo[3,4-b]pyrazin-6-yl)amino)ethyl)phenyl)-4-(pyrrolidin-1-yl)benzamide] are over 6.52 and over 6.52.
Taken in the same sequence, the figures for `CCn1cc2ncc(N[C@@H](C)c3cccc(NC(=O)Cc4cc(F)cc(F)c4)c3)nc2n1` [Compound 643, (S)-2-(3,5-difluorophenyl)-N-(3-(1-((2-ethyl-2H-pyrazolo[3,4-b]pyrazin-6-yl)amino)ethyl)phenyl)acetamide] were over 6.52 and 6.00 to 6.52.
`Cc1cncc(C(=O)Nc2cccc([C@H](C)Nc3cnc4ccc(C)cc4n3)c2)c1` [Compound 38, (S)-5-methyl-N-(3-(1-((7-methylquinoxalin-2-yl)amino)ethyl)phenyl)nicotinamide]: the pIC50 in assay [1] and in assay [2] was over 6.52 each time.
On to `Cc1cncc(C(=O)Nc2cccc([C@H](C)Nc3cnc4cnn(C5CC5)c4n3)c2)c1` [Compound 177, (S)-N-(3-(1-((1-cyclopropyl-1H-pyrazolo[3,4-b]pyrazin-6-yl)amino)ethyl)phenyl)-5-methylnicotinamide], for which the negative logarithm of the IC50 (pIC50) in assay [1] and in assay [2] was over 6.52 in each case.
On to `C[C@H](Nc1cnc2cnn(C)c2n1)c1cccc(NC(=O)c2cnn(C3CC3)c2)c1` [Compound 150, (S)-1-cyclopropyl-N-(3-(1-((1-methyl-1H-pyrazolo[3,4-b]pyrazin-6-yl)amino)ethyl)phenyl)-1H-pyrazole-4-carboxamide], for which the pIC50 in assay [1] and in assay [2] was over 6.52 each time.
For the molecule `CCn1cc2ncc(N[C@@H](C)c3cccc(NC(=O)c4ccn(C(C)C)n4)c3)nc2n1` [Compound 305, (S)-N-(3-(1-((2-ethyl-2H-pyrazolo[3,4-b]pyrazin-6-yl)amino)ethyl)phenyl)-1-isopropyl-1H-pyrazole-3-carboxamide], the negative logarithm of the IC50 (pIC50) in assay [1] is over 6.52; in assay [2] it was 6.00 to 6.52.
The corresponding values for `CCn1cc(C(=O)Nc2cccc([C@H](C)Nc3cnc4[nH]nc(C)c4n3)c2)cn1` [Compound 545, (S)-1-ethyl-N-(3-(1-((3-methyl-1H-pyrazolo[3,4-b]pyrazin-5-yl)amino)ethyl)phenyl)-1H-pyrazole-4-carboxamide] are over 6.52 and over 6.52.
Taken in the same sequence, the figures for `Cc1cncc(C(=O)Nc2cccc([C@H](C)Nc3cnc4[nH]nc(C)c4c3)c2)c1` [Compound 14, (S)-5-methyl-N-(3-(1-((3-methyl-1H-pyrazolo[3,4-b]pyridin-5-yl)amino)ethyl)phenyl)nicotinamide] were over 6.52 and over 6.52.
Taken in the same sequence, the figures for `Cc1cc(C(=O)Nc2cccc([C@H](C)Nc3cnc4[nH]cc(-c5cnn(C)c5)c4n3)c2)cnc1C(F)(F)F` [Compound 576, (S)-5-methyl-N-(3-(1-((7-(1-methyl-1H-pyrazol-4-yl)-5H-pyrrolo[2,3-b]pyrazin-2-yl)amino)ethyl)phenyl)-6-(trifluoromethyl)nicotinamide] were over 6.52 and over 6.52.
On to `CCn1cc2ncc(N[C@@H](C)c3cccc(NC(=O)c4cnc(NC)c(C)c4)c3)nc2n1` [Compound 380, (S)-N-(3-(1-((2-ethyl-2H-pyrazolo[3,4-b]pyrazin-6-yl)amino)ethyl)phenyl)-5-methyl-6-(methylamino)nicotinamide], for which the pIC50 in assay [1] is over 6.52; in assay [2], 6.00 to 6.52.
Taken in the same sequence, the figures for `CCn1cc2ncc(N[C@@H](C)c3cccc(NC(=O)c4ccc(NC)nc4)c3)nc2n1` [Compound 393, (S)-N-(3-(1-((2-ethyl-2H-pyrazolo[3,4-b]pyrazin-6-yl)amino)ethyl)phenyl)-6-(methylamino)nicotinamide] were 6.00 to 6.52 and at most 6.00.
Taken in the same sequence, the figures for `CCn1cc2ncc(N[C@@H](C)c3cccc(NC(=O)c4ccc(CN5C[C@@H](C)O[C@@H](C)C5)c(C)c4)c3)nc2n1` [Compound 478, 4-(((2S,6R)-2,6-dimethylmorpholino)methyl)-N-(3-((S)-1-((2-ethyl-2H-pyrazolo[3,4-b]pyrazin-6-yl)amino)ethyl)phenyl)-3-methylbenzamide] were over 6.52 and 6.00 to 6.52.
Regarding `Cc1ncc(C(F)(F)F)cc1C(=O)Nc1cccc([C@H](C)Nc2cnc3cnn(C)c3n2)c1` [Compound 126, (S)-2-methyl-N-(3-(1-((1-methyl-1H-pyrazolo[3,4-b]pyrazin-6-yl)amino)ethyl)phenyl)-5-(trifluoromethyl) nicotinamide], the pIC50 is 6.00 to 6.52 in assay [1] and at most 6.00 in assay [2].
Taken in the same sequence, the figures for `CCn1cc2ncc(N[C@@H](C)c3cc(NC(=O)Cc4ccc(OC)cn4)ccc3C)nc2n1` [Compound 698, (S)-N-(3-(1-((2-ethyl-2H-pyrazolo[3,4-b]pyrazin-6-yl)amino)ethyl)-4-methylphenyl)-2-(5-methoxypyridin-2-yl) acetamide] were over 6.52 and 6.00 to 6.52.
The corresponding values for `CCn1cc2ncc(N[C@@H](C)c3cc(NC(=O)c4ccc(OC(F)F)nc4)ccc3F)nc2n1` [Compound 304, (S)-6-(difluoromethoxy)-N-(3-(1-((2-ethyl-2H-pyrazolo[3,4-b]pyrazin-6-yl)amino)ethyl)-4-fluorophenyl)nicotinamide] are over 6.52 and over 6.52.
Taken in the same sequence, the figures for `CCn1cc2ncc(N[C@@H](C)c3cccc(NC(=O)c4ccc(CN5CCN(C)C(=O)C5)c(C)c4)c3)nc2n1` [Compound 479, (S)-N-(3-(1-((2-ethyl-2H-pyrazolo[3,4-b]pyrazin-6-yl)amino)ethyl)phenyl)-3-methyl-4-((4-methyl-3-oxopiperazin-1-yl)methyl)benzamide] were over 6.52 and over 6.52.
Regarding `Cc1cncc(C(=O)Nc2cccc([C@H](C)Nc3cnc4ccccc4n3)c2)c1` [Compound 4, (5)-5-methyl-N-(3-(1-(quinoxalin-2-ylamino)ethyl)phenyl)nicotinamide trifluoroacetate], the negative logarithm of the IC50 (pIC50) in assay [1] and in assay [2] was over 6.52 each time.
For `Cc1cc2ncc(N[C@@H](C)c3cc(NC(=O)c4cnn(C5CCC5)c4)ccc3F)nc2s1` [Compound 613, (S)-1-cyclobutyl-N-(4-fluoro-3-(1-((6-methylthieno[2,3-b]pyrazin-3-yl)amino)ethyl)phenyl)-1H-pyrazole-4-carboxamide], the pIC50 in assay [1] and in assay [2] was over 6.52 each time.
Consider `CCn1cc2ncc(N[C@@H](C)c3cccc(NC(=O)Cc4cccc(F)c4F)c3)nc2n1` [Compound 454, (S)-2-(2,3-difluorophenyl)-N-(3-(1-((2-ethyl-2H-pyrazolo[3,4-b]pyrazin-6-yl)amino)ethyl)phenyl)acetamide], for which the results for the pIC50 in assay [1] and in assay [2] were over 6.52 and 6.00 to 6.52, respectively.
In the case of `Cc1cc(C(=O)Nc2cccc([C@H](C)Nc3cnc4cnn(C)c4n3)c2)ccc1O` [Compound 240, (S)-4-hydroxy-3-methyl-N-(3-(1-((1-methylH-pyrazolo[3,4-b]pyrazin-6-yl)amino)ethyl)phenyl)benzamide], the pIC50 in assay [1] and in assay [2] was over 6.52 each time.
Consider `CCn1cc2ncc(N[C@@H](C)c3cc(NC(=O)c4ccc(C5CC5)nc4)ccc3F)nc2n1` [Compound 302, (S)-6-cyclopropyl-N-(3-(1-((2-ethyl-2H-pyrazolo[3,4-b]pyrazin-6-yl)amino)ethyl)-4-fluorophenyl)nicotinamide], for which the negative-log IC50 (pIC50) in assay [1] and in assay [2] was over 6.52 in each case.
Turning to `CCn1cc2ncc(N[C@@H](C)c3cccc(NC(=O)c4ccc(CN5CC[C@@H](O)C5)c(Cl)c4)c3)nc2n1` [Compound 483, 3-chloro-N-(3-((S)-1-((2-ethyl-2H-pyrazolo[3,4-b]pyrazin-6-yl)amino)ethyl)phenyl)-4-(((R)-3-hydroxypyrrolidin-1-yl)methyl) benzamide], the negative-log IC50 (pIC50) in assay [1] and in assay [2] was over 6.52 each time.
Regarding `Cc1n[nH]c2ncc(N[C@@H](C)c3cccc(NC(=O)c4ccc(C5CC5)nc4)c3)nc12` [Compound 535, (S)-6-cyclopropyl-N-(3-(1-((3-methyl-1H-pyrazolo[3,4-b]pyrazin-5-yl)amino)ethyl)phenyl)nicotinamide], the negative-log IC50 (pIC50) in assay [1] and in assay [2] was over 6.52 throughout.
With `Cc1cc(C(=O)Nc2cccc([C@H](C)Nc3cnc4cnn(C)c4n3)c2)cnc1OC(C)C` [Compound 248, (S)-6-isopropoxy-5-methyl-N-(3-(1-((1-methyl-1H-pyrazolo[3,4-b]pyrazin-6-yl)amino)ethyl)phenyl) nicotinamide], the negative-log IC50 (pIC50) in assay [1] and in assay [2] was over 6.52 throughout.
